Reference: paper PMC3299254 (International Journal of Microbiology, 2012)
Like-named read-outs stand apart in the source and are kept apart here. No end group written: not given here.

Assays:
[1] = tested on: Pseudomonas aeruginosa CMCC10104; type: cell-based; conditions: for MIC: Pseudomonas aeruginosa CMCC10104, microtiter dilution, LB medium without salt, 10^4-10^5 CFU/mL, 37°C, 24 h, OD620, Table 2
Description: (§1) All strains were cultured on Mueller-Hinton medium.

human erythrocytes = experiment: Minimum hemolytic concentration (MHC); type: cell-based
Description: The MHCs were measured by the method as described in Chen et al.: peptides were added to 1% human erythrocytes in phosphate-buffered saline (0.08 mol/L NaCl, 0.043 mol/L Na2HPO4, 0.011 mol/L KH2PO4) and then kept at 37°C for 1 h in microtiter plates. The supernatants were collected by centrifugation (800 g), and the OD562 of each supernatant was determined. We chose a 0.1% Triton X-100 solution as the positive control because this solution causes the total release of hemoglobin. We defined the MHC as the highest peptide concentration that caused no detectable release of hemoglobin (the ratio of the OD562 for the peptide solution to the OD562 for the positive control should be less than 1%).

[2] = tested on: Acinetobacter baumannii clinical isolates; type: cell-based; conditions: microtiter dilution, 37°C, 24 h, OD620
Description: as §1

[3] = Circular dichroism, percentage helicity; type: physicochemical; conditions: CD, 100 μM peptide, 10 mM sodium phosphate pH 7.5, 50% trifluoroethanol
Description: CD spectra were obtained with a Jasco J-710 instrument (Jasco, Tokyo, Japan) utilizing quartz cells with a 2 mm path length and peptide concentrations of 100 μM in a 10 mM sodium phosphate buffer with a pH of 7.5 containing 50% trifluoroethanol. Each spectrum was obtained from an average of 5 pairs of duplicates, and the percentage helicity of each peptide was determined.
The hydrophobic moments were determined with the HeliQuest web server, which can be used to evaluate amphipathicity. The percent helix values were determined based on CD spectra.

[4] = tested on: Klebsiella pneumonia clinical isolates; conditions: range over 6 clinical isolates
Source text: (§2) Twenty-two clinical isolates and night standard laboratory strains were used in this study: 4 Acinetobacter baumannii, 4 Pseudomonas aeruginosa, 3 Staphylococcus epidermidis, and 6 Klebsiella pneumonia (Changhai Hospital, Shanghai, China); 5 methicillin-resistance Staphylococcus aureus (Ruijin Hospital, Shanghai, China); Staphylococcus aureus CMCC26003; Bacillus subtilis DB430;Bacillus pumilus CMCC63202; Micrococcus luteus CMCC28001; E. coli ATCC8099; Klebsiella pneumoniae CMCC46117;Salmonella paratyphi B CMCC50094; Pseudomonas aeruginosa CMCC10104; Micrococcus S1.634. In addition, Pseudomonas aeruginosa CMCC10104 was used during the design of the peptides for evaluating antimicrobial activities. All strains were cultured on Mueller-Hinton medium.
(§3) The antibacterial activities of the different peptides were evaluated using the minimum inhibitory concentration (MIC). The process followed the standard microtiter dilution method in LB medium without salt. Briefly, bacteria were grown overnight in LB at 37°C and diluted in the same medium. Then, 100 μL of the medium was dispensed into each well of a 96-well plate. The number of bacteria was between 10^4 and 10^5 CFU/mL. Serial dilutions of peptides were performed consecutively in each well in 10 μL. Plates were incubated at 37°C for 24 h; then, the OD620 was measured to determine the MIC of each peptide.

Bacillus subtilis DB430 = conditions: microtiter dilution, 37°C, 24 h, OD620
Source text: as §2, §3

[5] = tested on: Soluble wall Micrococcus S1.634; conditions: microtiter dilution, 37°C, 24 h, OD620
Source text: as §2, §3

[6] = tested on: Klebsiella pneumoniae CMCC46117; conditions: microtiter dilution, 37°C, 24 h, OD620
Source text: as §2, §3

[7] = tested on: Bacillus pumilus CMCC63202; conditions: microtiter dilution, 37°C, 24 h, OD620
Source text: as §2, §3

[8] = tested on: Gram-positive and Gram-negative bacteria and 22 clinical isolates; conditions: overall statement
Source text: as §2, §3

[9] = tested on: Salmonella paratyphi B CMCC50094; conditions: microtiter dilution, 37°C, 24 h, OD620
Source text: as §2, §3

E. coli ATCC8099 = conditions: microtiter dilution, 37°C, 24 h, OD620
Source text: as §2, §3

[10] = tested on: Staphylococcus epidermidis clinical isolates; conditions: range over 3 clinical isolates
Source text: as §2, §3

[11] = tested on: Micrococcus luteus CMCC28001; conditions: microtiter dilution, 37°C, 24 h, OD620
Source text: as §2, §3

[12] = tested on: Pseudomonas aeruginosa clinical isolates; conditions: range over 4 clinical isolates
Source text: as §2, §3

[13] = tested on: Staphylococcus aureus CMCC26003; conditions: microtiter dilution, 37°C, 24 h, OD620
Source text: as §2, §3

MRSA clinical isolates = conditions: range over 5 clinical MRSA isolates
Source text: as §2, §3

[14] = MHC/MIC ratio, MHC human erythrocytes, MIC Pseudomonas aeruginosa
[15] = 1% human erythrocytes in PBS, 37°C, 1 h, OD562, highest concentration with no detectable hemoglobin release (<1% of 0.1% Triton X-100)

Substance | Therapeutic index [1, 14] | MIC [1] | MHC (human erythrocytes; [15]) | other results
KFKSFIKKLTSKFLHSAKKF-NH2 [Peptide F2] | 20 | 12.5 µg/mL | 250 µg/mL | 
KWKLFKKIPKFLHLAKKF-NH2 [Peptide P18, reference compound] |  | 25 µg/mL |  | Therapeutic index ([1]; CMCC10104, 24 h): 10; MIC ([2]; clinical isolate b-01): 6.25 µg/mL; MIC ([2]; clinical isolate b-02): 25 µg/mL; MIC ([2]; clinical isolate b-03): 12.5 µg/mL; MIC ([2]; clinical isolate b-04): 12.5 µg/mL; MHC (human erythrocytes): 250 µg/mL
KWKSFIKKAKTSFLHSAKKF-NH2 [Peptide A9] | 20 | 25 µg/mL | >500 µg/mL | 
KWKSFIKKKTSKFLHSAKKF-NH2 [Peptide K9] |  | >50 µg/mL |  | 
KWKSFIKKLASKFLHSAKKF-NH2 [Peptide A10, S16 derivative by single amino acid substitution] | 20 | 12.5 µg/mL | 250 µg/mL | %Helix [3]: 72.5%
KWKSFIKKLLSKFLHSAKKF-NH2 [Peptide L10] | 10 | 12.5 µg/mL | <125 µg/mL | 
KWKSFIKKLTDKFLHSAKKF-NH2 [Peptide D11] | 20 | 25 µg/mL | >500 µg/mL | 
KWKSFIKKLTKKFLHSAKKF-NH2 [Peptide K11] | 320 | 1.6 µg/mL |  | MIC ([2]; clinical isolate b-01): 0.8 µg/mL; MIC ([2]; clinical isolate b-02): 3.125 µg/mL; MIC ([2]; clinical isolate b-04): 1.6 µg/mL; MIC [4]: 0.5−4.0 μg/mL; MIC (Bacillus subtilis DB430): 2 µg/mL; MIC [5]: 1 µg/mL; MIC [6]: 2 µg/mL; MIC [7]: 0.5 µg/mL; MICs [8]: less than 10 μg/mL; MIC [9]: 2 µg/mL; MIC (E. coli ATCC8099): 0.5 µg/mL; MIC [10]: 0.5−8 μg/mL; MIC [11]: 2 µg/mL; MIC [12]: 1.0−8.0 μg/mL; MIC [13]: 0.5 µg/mL; MIC (MRSA clinical isolates): 0.25−4 μg/mL
KWKSFIKKLTLKFLHSKKKF-NH2 [Peptide L11, S16 derivative by single amino acid substitution] |  | >50 µg/mL |  | 
KWKSFIKKLTSKALHSAKKF-NH2 [Peptide A13, S16 derivative by single amino acid substitution] | 80 | 6.25 µg/mL | >500 µg/mL | %Helix [3]: 45.9%
KWKSFIKKLTSKFLHLAKKF-NH2 [CP-P] | 20 | 12.5 µg/mL | 250 µg/mL | 
KWKSFIKKLTSKFLHSADKF-NH2 [Peptide D18] | 20 | 25 µg/mL | >500 µg/mL | 
KWKSFIKKLTSKFLHSAKKF-NH2 [Peptide S16] | 160 | 3.125 µg/mL | >500 µg/mL | MIC ([2]; clinical isolate b-01): 3.125 µg/mL; MIC ([2]; clinical isolate b-02): 6.25 µg/mL; MIC ([2]; clinical isolate b-03): 6.25 µg/mL; MIC ([2]; clinical isolate b-04): 3.125 µg/mL
KWKSFIKKLTSKFLHSAKKN-NH2 [Peptide N20] | 80 | 6.25 µg/mL | >500 µg/mL | 
KWKSFIKKLTSKFLHSANKF-NH2 [Peptide N18, S16 derivative by single amino acid substitution] | 80 | 6.25 µg/mL | >500 µg/mL | %Helix [3]: 37.2%
KWKSFIKKLTSKFLHSKKKF-NH2 [Peptide K17] | 40 | 12.5 µg/mL | >500 µg/mL | 
KWKSFIKKLTSKKLHSAKKF-NH2 [Peptide K13] |  | >50 µg/mL |  | 
KWKSFIKKRTSKFLHSAKKF-NH2 [Peptide R9] |  | >50 µg/mL |  | 
KWKSFIKKSTSKFLHSAKKF-NH2 [Peptide S9] | 10 | 50 µg/mL | >500 µg/mL | 
KWKSFINKLTSKFLHSAKKF-NH2 [Peptide N7] | 40 | 12.5 µg/mL | >500 µg/mL | 
KWKSFKKKLTSKFLHSAKKF-NH2 [Peptide K6] |  | 12.5 µg/mL |  | 
KWNSFIKKLTSKFLHSAKKF-NH2 [Peptide N3] |  | 12.5 µg/mL |  | 
